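Five compound concentrations were applied to cells in 96-well plates for 48 hours; endpoints were derived by simple linear interpolation of the resulting dose-response curve. TGI: concentration producing complete growth inhibition.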 Where a SMILES comes first, the peptide text is derived from it. Where only a bound is given, the exact number is not on record here.

Some test systems named below: NCI-H23 lung; CAKI-1 renal; M19-MEL melanoma; DMS 114 small cell lung; DMS 273 small cell lung; DLD-1 colon; HOP-18 NSCLC; LXFL 529 NSCLC.
What all share (assay): inhibition of tumour cell growth, NCI panel, 48 h

`CC(Cc1ccc2c(c1)OCO2)N(C)C(=O)C1=CCN(C)CC1` (stereo unspecified): the TGI in the test with NCI-H23 lung and with CAKI-1 renal was greater than 100 µM throughout.

Regarding `S=C(Nc1cccc(C2(N3CCCCC3)CCCCC2)c1)Nc1cccc(C2(N3CCCCC3)CCCCC2)c1`, the TGI with NCI-H23 lung and in the test on CAKI-1 renal was greater than 100 µM in each case.

Turning to `CCCN(CCC)C(=O)c1c(Cl)c2cccnc2n2c(C)cnc12`, the TGI was greater than 100 µM in the test with NCI-H23 lung and 79.7 µM with CAKI-1 renal.

On to `CC(=O)NC(CO)C(=O)NC(Cc1ccc(O)cc1)C(=O)NCC(N)=O` (stereo not drawn) (Ac-Ser-Tyr-Gly-NH2; configuration not given here), for which the TGI in the test on NCI-H23 lung and with CAKI-1 renal was greater than 100 µM throughout.

On to `Cc1ccc(N2C(=O)C(=O)N(/N=C3\C(=O)Nc4ccccc43)C2=S)cc1`, for which the TGI in the test with NCI-H23 lung and in the test on CAKI-1 renal was greater than 100 µM each time.

For `CC(=O)Oc1cc(S(=O)(=O)Nc2n[nH]c(N)n2)c(S)cc1Cl`, the TGI in the test with NCI-H23 lung and in the test with CAKI-1 renal was greater than 100 µM in each case.

In the case of `Nc1nc(NCCOCP(=O)(O)O)c(N)c(=O)[nH]1`, the TGI in the test on NCI-H23 lung and in the test on CAKI-1 renal was greater than 100 µM each time.

Regarding `CC(C)(C)N=c1n(C(C)(C)C)oc(=O)n1-c1ccccc1`, the TGI with NCI-H23 lung and in the test with CAKI-1 renal was greater than 50 µM throughout.

With `CC/C=C/C(/C=C/C[C@]1(CC)C[C@H](CC)[C@H](CC(=O)O)OO1)CC` (stereo partly specified), the figures for the TGI in the test with NCI-H23 lung and in the test with CAKI-1 renal were 6.04 µM and 4.82 µM, respectively.

Turning to `CC(=O)Nc1nnc(S(=O)(=O)NC(=S)Nc2ccc(Cl)cc2)s1`, the TGI in the test on NCI-H23 lung and in the test on CAKI-1 renal was greater than 100 µM each time.

In the case of `CCN1C(=O)CS/C1=N\NC(=O)CSc1nc2ccccc2c(=O)n1CC`, the TGI in the test with NCI-H23 lung and in the test on CAKI-1 renal was greater than 100 µM throughout.

As for `CN(C)C(=O)Oc1ccc(C(=S)Nc2ccccc2)cc1Br`, the TGI in the test with NCI-H23 lung is 57.3 µM; in the test on CAKI-1 renal it was greater than 100 µM.

The compound `COC(=O)CNCC1OC2OC(C)(C)OC2C1N=[N+]=[N-]` (stereo unspecified) registered a TGI with CAKI-1 renal greater than 100 µM.

Consider `CSc1nc(C)c(CCCl)c(Cl)n1`, for which the TGI in the test with NCI-H23 lung and in the test on CAKI-1 renal was greater than 100 µM each time.

On to `COc1ccc(N2C(=O)C3c4[nH]c5ccc(OCc6ccccc6)cc5c4C4CCC(C(C)C)CC4C3C2=O)cc1` (stereo unspecified), for which the TGI is greater than 45.3 µM with NCI-H23 lung and greater than 59.6 µM with CAKI-1 renal.

With `CNc1ncnc2c1cnn2Cc1cn(CCCCO)nn1`, the TGI in the test on NCI-H23 lung and with CAKI-1 renal was greater than 100 µM each time.

As for `O=C1/C(=C/c2ccc(Cl)cc2)Sc2scc(-c3cccc([N+](=O)[O-])c3)[n+]21`, the TGI in the test with NCI-H23 lung stood at 12.9 µM; in the test on CAKI-1 renal, 6.85 µM.

As for `CSc1nc(-c2ccc(Cl)cc2)c(C#N)c(=O)[nH]1`, the TGI in the test on NCI-H23 lung and in the test on CAKI-1 renal was greater than 100 µM throughout.

For `COC(=O)CCC(C)[C@H]1CCC2C3C(C[C@H](OC(C)=O)[C@@]21C)[C@@]1(C)CCC2(C[C@H]1C[C@H]3OC(C)=O)OOC1(CCCCC1)OO2` (stereo partly specified), the TGI in the test on NCI-H23 lung and with CAKI-1 renal was greater than 100 µM each time.

With `Cn1nc(C(=O)N2CC(CCl)c3c2cc([N+](=O)[O-])c2ccccc32)cc1NC(=O)Nc1cc(C(=O)N2CC(CCl)c3c2cc([N+](=O)[O-])c2ccccc32)nn1C` (stereo unspecified), the TGI with NCI-H23 lung and in the test on CAKI-1 renal was greater than 100 µM each time.

For `COc1cccc(C(=O)N[C@@H]2[C@H](O)[C@@H](CO)O[C@H]2n2cnc3c(N)ncnc32)c1`, the TGI in the test with NCI-H23 lung and in the test with CAKI-1 renal was greater than 100 µM each time.

The compound `CC(C)(CN)SCc1ccccc1` registered a TGI in the test on CAKI-1 renal greater than 100 µM.

`CCOC(=O)c1c(NC(=O)c2ccc(Br)cc2)sc2c1CCCC2`: the TGI in the test with NCI-H23 lung and in the test with CAKI-1 renal was greater than 100 µM each time.

Regarding `O=c1c(Sc2ncccn2)c(Sc2ncccn2)cnn1CCl`, the TGI in the test on NCI-H23 lung came out at 18.3 µM; in the test with CAKI-1 renal, 5.89 µM.

Regarding `O=C(Nc1ccc(S(=O)(=O)Nc2ncccn2)cc1)c1c2ccccc2nc2ccccc12`, the TGI in the test on NCI-H23 lung and in the test on CAKI-1 renal was greater than 100 µM each time.

Take `CCc1n[nH]c(=S)n1/N=C\c1ccc(-c2ccccc2[N+](=O)[O-])o1`: the TGI with NCI-H23 lung and with CAKI-1 renal was greater than 100 µM in each case.

Turning to `Cc1cc(C#N)c(Nc2ccccc2[N+](=O)[O-])s1`, the TGI in the test with NCI-H23 lung and with CAKI-1 renal was greater than 100 µM each time.

For the compound `C[N+]12CCCCC1C(CN1C(=O)c3ccccc3C1=O)CCC2` (stereo unspecified), the TGI with NCI-H23 lung and with CAKI-1 renal was greater than 100 µM in each case.

As for `COc1cc2c(cc1OCCCCN1CCN(CCCCOc3cc4c(cc3OC)C(=O)N3CCC[C@H]3C=N4)CC1)N=C[C@@H]1CCCN1C2=O`, the TGI in the test with NCI-H23 lung was 0.0914 µM; in the test on CAKI-1 renal, 0.182 µM.

With `Cc1nc(Nc2nc3ccccc3[nH]2)[nH]c(=O)c1CCO`, the TGI in the test on NCI-H23 lung and in the test on CAKI-1 renal was greater than 100 µM throughout.

With `CC(=O)NC1C(OCc2ccccc2)OC(CO)C(O)C1OCC(=O)N1CCCC1C(=O)NC(CCC(=O)NCCCCCNc1c2ccccc2nc2cccc([N+](=O)[O-])c12)C(N)=O` (stereo unspecified), the TGI in the test on NCI-H23 lung amounted to 0.904 µM; in the test on CAKI-1 renal, 0.134 µM.

As to `O=C1Nc2ccc(Br)cc2/C1=C/C(=O)c1ccccc1`, the figures for the TGI in the test with NCI-H23 lung and with CAKI-1 renal were 23.8 µM and 20 µM, respectively.

For the compound `Cc1cc(C(O)CNC(C)CCn2cnc3c2c(=O)n(C)c(=O)n3C)ccc1O` (stereo unspecified), the TGI in the test with NCI-H23 lung and with CAKI-1 renal was greater than 100 µM each time.

With `CN1CCCC(C(=O)OCC(=O)C2(O)CCC3C4CCC5=CC(=O)CCC5(C)C4C(O)CC32C)C1` (stereo unspecified), the TGI with NCI-H23 lung was 46.4 µM; in the test with CAKI-1 renal it was greater than 65.8 µM.

Regarding `Cc1ccc(-n2cc(-c3ccc(Cl)cc3)c(C#N)c2N)cc1`, the TGI was 31.5 µM with NCI-H23 lung and 45.3 µM in the test with CAKI-1 renal.

As to `Cc1ccc(F)c2c(=O)cc(-c3ccccc3)[nH]c12`, the TGI with M19-MEL melanoma, with DMS 114 small cell lung, with NCI-H23 lung, with DMS 273 small cell lung, in the test on CAKI-1 renal and in the test with DLD-1 colon was greater than 100 µM each time. Also, the TGI in the test on HOP-18 NSCLC and in the test on LXFL 529 NSCLC was greater than 100 µM throughout.

The values are drawn from PubChem BioAssay (NCI).
